This note sets out measurements from patent US10689354B2, “Aminoazole derivative” (Teijin Pharma Limited, priority 2015, dated 2020).

Test [1] concerns the target T1, androgen receptor (AR-LBD) (Rattus norvegicus, UniProt P15207).
T1 construct: 5 μL of 2×AR-LBD/Fluoromone AL Red Complex contained in the kit; purchased Invitrogen
T1 sequence (P15207 651-882 limits assumed): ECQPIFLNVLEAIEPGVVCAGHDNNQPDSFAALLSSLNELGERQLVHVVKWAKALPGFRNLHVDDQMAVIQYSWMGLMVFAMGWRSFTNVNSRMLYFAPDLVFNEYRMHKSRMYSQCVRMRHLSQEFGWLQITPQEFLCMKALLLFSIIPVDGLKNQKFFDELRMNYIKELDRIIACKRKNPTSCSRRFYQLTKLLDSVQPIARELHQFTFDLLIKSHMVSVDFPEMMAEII
Description: Evaluation of androgen receptor affinity (PolarScreen Androgen Receptor Competitor Assay Kit, Red; fluorescence polarization). As to conditions: 22° C. for 5 hours, relative to binding rate of 1 μM DHT, read-out: AR affinity (pEC50) (converted). A digest of the protocol: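 Duplicate wells; compound plus AR-LBD tracer complex incubated 22° C for 5 h, then FP measured. Effect compared with 1 μM DHT; 50%-effect concentration expressed as pEC50.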
In general terms: In fluorescence polarisation assays a small probe gives low polarisation when free and higher when bound to something large.

The target in the next test is T2, human androgen receptor (Homo sapiens, UniProt P10275).
T2 construct: expressed in transfected cells; host or cells: HEK293
T2 sequence (P10275 1-920): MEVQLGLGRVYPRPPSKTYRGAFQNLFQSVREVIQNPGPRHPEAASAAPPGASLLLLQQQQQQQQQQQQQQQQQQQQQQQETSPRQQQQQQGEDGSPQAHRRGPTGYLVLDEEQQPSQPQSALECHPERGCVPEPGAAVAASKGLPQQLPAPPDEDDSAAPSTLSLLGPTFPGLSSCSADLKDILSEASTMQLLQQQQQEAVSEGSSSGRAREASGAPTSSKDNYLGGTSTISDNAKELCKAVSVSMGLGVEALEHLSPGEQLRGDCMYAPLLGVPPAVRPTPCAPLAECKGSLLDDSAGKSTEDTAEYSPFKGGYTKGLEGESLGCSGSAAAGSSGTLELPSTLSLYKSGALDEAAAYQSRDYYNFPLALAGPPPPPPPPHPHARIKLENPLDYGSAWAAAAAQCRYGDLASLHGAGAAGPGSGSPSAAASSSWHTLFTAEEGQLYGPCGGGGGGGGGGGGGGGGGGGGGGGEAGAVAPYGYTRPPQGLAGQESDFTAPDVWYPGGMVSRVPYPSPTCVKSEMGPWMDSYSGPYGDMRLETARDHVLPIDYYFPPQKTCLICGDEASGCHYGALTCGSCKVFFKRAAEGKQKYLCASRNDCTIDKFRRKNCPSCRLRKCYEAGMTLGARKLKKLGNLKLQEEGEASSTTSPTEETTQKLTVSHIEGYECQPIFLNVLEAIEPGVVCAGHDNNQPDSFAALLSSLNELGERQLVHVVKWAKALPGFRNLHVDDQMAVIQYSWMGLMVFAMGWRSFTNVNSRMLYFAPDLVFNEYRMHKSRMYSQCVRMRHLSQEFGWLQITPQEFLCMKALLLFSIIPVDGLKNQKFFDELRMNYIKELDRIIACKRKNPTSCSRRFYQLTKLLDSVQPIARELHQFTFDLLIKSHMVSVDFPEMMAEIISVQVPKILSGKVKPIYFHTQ
Description: Reporter assay of an androgen receptor responsive sequence (luciferase, transiently transfected HEK293 cells). As to conditions: 24 hours incubation, relative to activity of 100 nM DHT, read-out: AR transcriptive activity (pEC50) (converted). The class given is cell-based. A digest of the protocol:
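Agonism scored as pEC50, fitted by 4-parameter curve against the response to 100 nM DHT, from dual-luciferase readout after 24 h compound treatment. Cells were HEK293 co-transfected (3 h) with human AR expression vector, androgen-responsive firefly reporter and Renilla control, in charcoal-stripped serum.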
In general terms: Reporter assays use an easily measured gene product as a stand-in for the process of interest.

Each structure is given as a SMILES string. Where only a bound is given, the exact number is not on record here.

On to `Cc1sc(N(CCc2ccc(C#N)cc2)Cc2ccccc2)nc1C(=O)NS(C)(=O)=O` [Example 301, 2-[benzyl-[2-(4-cyanophenyl)ethyl]amino]-5-methyl-N-methylsulfonyl-thiazole-4-carboxamide], for which the EC50 is 50.1 nM in test [1] and 158 nM on human androgen receptor.
For `Cc1sc(N(CCc2ccccc2Cl)Cc2ccccc2)nc1C(=O)NS(C)(=O)=O` [Example 303, 2-[benzyl-[2-(2-chlorophenyl)ethyl]amino]-5-methyl-N-methylsulfonyl-thiazole-4-carboxamide], the EC50 in test [1] was 126 nM; on human androgen receptor, above 10000 nM.
In the case of `Cc1sc(N(Cc2ccc(Cl)cc2)Cc2csc3cc(C#N)ccc23)nc1C(=O)NS(C)(=O)=O` [Example 305, 2-[(4-chlorophenyl)methyl-[(6-cyanobenzothiophen-3-yl)methyl]amino]-5-methyl-N-methylsulfonyl-thiazole-4-carboxamide], the EC50 in test [1] was above 2000 nM; at human androgen receptor it was above 10000 nM.
As to `Cc1sc(N(CCc2ccc(C#N)cc2)Cc2ccc(Cl)cc2)nc1C(=O)NS(C)(=O)=O` [Example 306, 2-[(4-chlorophenyl)methyl-[2-(4-cyanophenyl)ethyl]amino]-5-methyl-N-methylsulfonyl-thiazole-4-carboxamide], the EC50 is 31.6 nM in test [1] and 100 nM on human androgen receptor.
As for `COc1cccc(CCN(Cc2ccccc2)c2nc(C(=O)NS(C)(=O)=O)c(C)s2)c1` [Example 308, 2-[benzyl-[2-(3-methoxyphenyl)ethyl]amino]-5-methyl-N-methylsulfonyl-thiazole-4-carboxamide], the EC50 in test [1] was 79.4 nM; at human androgen receptor it was 5010 nM.
In the case of `Cc1sc(N(CCc2cccs2)Cc2ccccc2)nc1C(=O)NS(C)(=O)=O` [Example 310, 2-[benzyl-[2-(2-thienyl)ethyl]amino]-5-methyl-N-methylsulfonyl-thiazole-4-carboxamide], the EC50 in test [1] was 200 nM; on human androgen receptor, 2510 nM.
With `Cc1sc(N(CCc2ccsc2)Cc2ccccc2)nc1C(=O)NS(C)(=O)=O` [Example 313, 2-[benzyl-[2-(3-thienyl)ethyl]amino]-5-methyl-N-methylsulfonyl-thiazole-4-carboxamide], the EC50 was 158 nM in test [1] and 1000 nM on human androgen receptor.
`Cc1sc(N(CCc2ccc(Cl)cc2Cl)Cc2ccccc2)nc1C(=O)NS(C)(=O)=O` [Example 315, 2-[benzyl-[2-(2,4-dichlorophenyl)ethyl]amino]-5-methyl-N-methylsulfonyl-thiazole-4-carboxamide]: the results for the EC50 (in test [1]; on human androgen receptor) were 79.4 nM and 158 nM, respectively.
